Laboratory results from patent US8846933B2, “N-link hydroxamic acid derivatives useful as antibacterial agents” (Pfizer Inc., priority 2009, dated 2014).

How the values were obtained:
[1] = system: Escherichia coli EC-1: VOGEL, mouse virulent; assay: MIC determination (CLSI), strain EC-1; format: cell-based; conditions: strain EC-1; unit assumed
Outline: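 The mouse-virulent VOGEL isolate of E. coli, EC-1, served as test organism. Minimum inhibitory concentration was measured by CLSI dilution methodology (M7-A7; M100-S18 standards).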

[2] = system: Pseudomonas aeruginosa UI-18: Wild-type (PA-7); assay: MIC determination (CLSI), strain PA-7; format: cell-based; conditions: strain PA-7; unit assumed
Outline: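 Strain tested was P. aeruginosa UI-18, a wild-type isolate labelled PA-7. Minimum inhibitory concentrations followed CLSI dilution methodology for aerobically growing bacteria (M7-A7, M100-S18).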

Compound `COc1cc(-c2ccn(CCC(C)(C(=O)NO)S(C)(=O)=O)c(=O)c2)ccc1OCCCN1CCOCC1` (centres unmarked) [Example 227, N-hydroxy-4-{4-[3-methoxy-4-(3-morpholin-4-ylpropoxy)phenyl]-2-oxopyridin-1(2H)-yl}-2-methyl-2-(methylsulfonyl)butanamide] has an EC-1 (MIC) [1] of 64 µg/mL and a PA-7 (MIC) [2] of 64 µg/mL.

`Cc1cc(OCCCN2CCOCC2)ccc1-c1ccn(CCC(C)(C(=O)NO)S(C)(=O)=O)c(=O)c1` (centres unmarked) [Example 228, N-hydroxy-2-methyl-4-{4-[2-methyl-4-(3-morpholin-4-ylpropoxy)phenyl]-2-oxopyridin-1(2H)-yl}-2-(methylsulfonyl)butanamide] was tested, and the EC-1 (MIC) [1] was 8 µg/mL and the PA-7 (MIC) [2] was 16 µg/mL.

With `CC(CCn1ccc(-c2ccc(OCCCCCO)cc2)cc1=O)(C(=O)NO)S(C)(=O)=O` (centres unmarked) [Example 229, N-hydroxy-4-[4-{4-[(5-hydroxypentyl)oxy]phenyl}-2-oxopyridin-1(2H)-yl]-2-methyl-2-(methylsulfonyl)butanamide] the EC-1 (MIC) [1] was 0.25 µg/mL and the PA-7 (MIC) [2] was 2 µg/mL.

In the case of `CC(CCn1ccc(-c2ccc(S(N)(=O)=O)cc2)cc1=O)(C(=O)NO)S(C)(=O)=O` (centres unmarked) [Example 230, 4-{4-[4-(aminosulfonyl)phenyl]-2-oxopyridin-1(2H)-yl}-N-hydroxy-2-methyl-2-(methylsulfonyl)butanamide], the EC-1 (MIC) [1] is reported as 64 µg/mL and the PA-7 (MIC) [2] is reported as > 64 µg/mL.

`CC(O)Cc1cccc(-c2ccn(CCC(C)(C(=O)NO)S(C)(=O)=O)c(=O)c2)c1` (centres unmarked) [Example 231, N-hydroxy-4-{4-[3-(2-hydroxypropyl)phenyl]-2-oxopyridin-1(2H)-yl}-2-methyl-2-(methylsulfonyl)butanamide] was tested, and the EC-1 (MIC) [1] was > 64 µg/mL and the PA-7 (MIC) [2] was > 64 µg/mL.

Work on `CC(CCn1ccc(-c2ccc(OCCO)cc2Cl)cc1=O)(C(=O)NO)S(C)(=O)=O` (centres unmarked) [Example 232, 4-{4-[2-chloro-4-(2-hydroxyethoxy)phenyl]-2-oxopyridin-1(2H)-yl}-N-hydroxy-2-methyl-2-(methylsulfonyl)butanamide] yielded an EC-1 (MIC) [1] of 16 µg/mL and a PA-7 (MIC) [2] of 16 µg/mL.

In the case of `Cc1cc(-c2ccn(CCC(C)(C(=O)NO)S(C)(=O)=O)c(=O)c2)c(C)cc1OCCO` (centres unmarked) [Example 233, N-hydroxy-4-{4-[4-(2-hydroxyethoxy)-2,5-dimethylphenyl]-2-oxopyridin-1(2H)-yl}-2-methyl-2-(methylsulfonyl)butanamide], the EC-1 (MIC) [1] is reported as > 64 µg/mL and the PA-7 (MIC) [2] is reported as > 64 µg/mL.

For `CC(CCn1ccc(-c2ccc(OCCO)c(Cl)c2Cl)cc1=O)(C(=O)NO)S(C)(=O)=O` (centres unmarked) [Example 234, 4-{4-[2,3-dichloro-4-(2-hydroxyethoxy)phenyl]-2-oxopyridin-1(2H)-yl}-N-hydroxy-2-methyl-2-(methylsulfonyl)butanamide], the EC-1 (MIC) [1] was 64 µg/mL and the PA-7 (MIC) [2] was 32 µg/mL.

`Cc1cc(-c2ccn(CCC(C)(C(=O)NO)S(C)(=O)=O)c(=O)c2)ccc1OCCO` (centres unmarked) [Example 235, N-hydroxy-4-{4-[4-(2-hydroxyethoxy)-3-methylphenyl]-2-oxopyridin-1(2H)-yl}-2-methyl-2-(methylsulfonyl)butanamide] showed an EC-1 (MIC) [1] of 8 µg/mL and a PA-7 (MIC) [2] of 8 µg/mL.

For `CC(CCn1ccc(-c2ccc(OCCO)c(Cl)c2)cc1=O)(C(=O)NO)S(C)(=O)=O` (centres unmarked) [Example 236, 4-{4-[3-chloro-4-(2-hydroxyethoxy)phenyl]-2-oxopyridin-1(2H)-yl}-N-hydroxy-2-methyl-2-(methylsulfonyl)butanamide], the EC-1 (MIC) [1] was 32 µg/mL and the PA-7 (MIC) [2] was 16 µg/mL.

`Cc1cc(OCCO)ccc1-c1ccn(CCC(C)(C(=O)NO)S(C)(=O)=O)c(=O)c1` (centres unmarked) [Example 237, N-hydroxy-4-{4-[4-(2-hydroxyethoxy)-2-methylphenyl]-2-oxopyridin-1(2H)-yl}-2-methyl-2-(methylsulfonyl)butanamide] was tested, and the EC-1 (MIC) [1] was > 64 µg/mL and the PA-7 (MIC) [2] was 32 µg/mL.

For `CC(CCn1ccc(-c2ccc(OCCCCO)c(Cl)c2)cc1=O)(C(=O)NO)S(C)(=O)=O` (centres unmarked) [Example 238, 4-{4-[3-chloro-4-(4-hydroxybutoxy)phenyl]-2-oxopyridin-1(2H)-yl}-N-hydroxy-2-methyl-2-(methylsulfonyl)butanamide], the EC-1 (MIC) [1] was 0.5 µg/mL and the PA-7 (MIC) [2] was 4 µg/mL.

`CC(CCn1ccc(-c2ccc(OCCCCO)cc2Cl)cc1=O)(C(=O)NO)S(C)(=O)=O` (centres unmarked) [Example 239, 4-{4-[2-chloro-4-(4-hydroxybutoxy)phenyl]-2-oxopyridin-1(2H)-yl}-N-hydroxy-2-methyl-2-(methylsulfonyl)butanamide] gave an EC-1 (MIC) [1] of 1 µg/mL and a PA-7 (MIC) [2] of 4 µg/mL.

`CC(CCn1ccc(-c2ccc(OCCCCO)c(F)c2)cc1=O)(C(=O)NO)S(C)(=O)=O` (centres unmarked) [Example 240, 4-{4-[3-fluoro-4-(4-hydroxybutoxy)phenyl]-2-oxopyridin-1(2H)-yl}-N-hydroxy-2-methyl-2-(methylsulfonyl)butanamide] showed an EC-1 (MIC) [1] of 1 µg/mL and a PA-7 (MIC) [2] of 4 µg/mL.

`CC(CCn1ccc(-c2ccc(OCCCCO)cc2F)cc1=O)(C(=O)NO)S(C)(=O)=O` (centres unmarked) [Example 241] showed an EC-1 (MIC) [1] of 2 µg/mL and a PA-7 (MIC) [2] of 2 µg/mL.

Compound `COc1cc(-c2ccn(CCC(C)(C(=O)NO)S(C)(=O)=O)c(=O)c2)ccc1OCCCCO` (centres unmarked) [Example 242, N-hydroxy-4-{4-[4-(4-hydroxybutoxy)-3-methoxyphenyl]-2-oxopyridin-1(2H)-yl}-2-methyl-2-(methylsulfonyl)butanamide] has an EC-1 (MIC) [1] of 32 µg/mL and a PA-7 (MIC) [2] of 64 µg/mL.

Work on `Cc1cc(OCCCCO)ccc1-c1ccn(CCC(C)(C(=O)NO)S(C)(=O)=O)c(=O)c1` (centres unmarked) [Example 243, N-hydroxy-4-{4-[4-(4-hydroxybutoxy)-2-methylphenyl]-2-oxopyridin-1(2H)-yl}-2-methyl-2-(methylsulfonyl)butanamide] yielded an EC-1 (MIC) [1] of 4 µg/mL and a PA-7 (MIC) [2] of 8 µg/mL.

In the case of `CC(CCn1ccc(-c2cc(Cl)c(OCCO)cc2Cl)cc1=O)(C(=O)NO)S(C)(=O)=O` (centres unmarked) [Example 244, 4-{4-[2,5-dichloro-4-(2-hydroxyethoxy)phenyl]-2-oxopyridin-1(2H)-yl}-N-hydroxy-2-methyl-2-(methylsulfonyl)butanamide], the EC-1 (MIC) [1] is reported as 32 µg/mL and the PA-7 (MIC) [2] is reported as > 64 µg/mL.

`COc1cc(OCCCCO)ccc1-c1ccn(CCC(C)(C(=O)NO)S(C)(=O)=O)c(=O)c1` (centres unmarked) [Example 245] gave an EC-1 (MIC) [1] of 64 µg/mL and a PA-7 (MIC) [2] of 64 µg/mL.

For `CC(CCn1ccc(-c2ccc(OCCCO)c(Cl)c2)cc1=O)(C(=O)NO)S(C)(=O)=O` (centres unmarked) [Example 246, 4-{4-[3-chloro-4-(3-hydroxypropoxy)phenyl]-2-oxopyridin-1(2H)-yl}-N-hydroxy-2-methyl-2-(methylsulfonyl)butanamide], the EC-1 (MIC) [1] was 2 µg/mL and the PA-7 (MIC) [2] was 4 µg/mL.

Compound `CC(CCn1ccc(-c2ccc(OCCCO)c(F)c2)cc1=O)(C(=O)NO)S(C)(=O)=O` (centres unmarked) [Example 247, 4-{4-[3-fluoro-4-(3-hydroxypropoxy)phenyl]-2-oxopyridin-1(2H)-yl}-N-hydroxy-2-methyl-2-(methylsulfonyl)butanamide] has an EC-1 (MIC) [1] of 4 µg/mL and a PA-7 (MIC) [2] of 8 µg/mL.

`Cc1cc(-c2ccn(CCC(C)(C(=O)NO)S(C)(=O)=O)c(=O)c2)ccc1OCCCO` (centres unmarked) [Example 248, N-hydroxy-4-{4-[4-(3-hydroxypropoxy)-3-methylphenyl]-2-oxopyridin-1(2H)-yl}-2-methyl-2-(methylsulfonyl)butanamide] was tested, and the EC-1 (MIC) [1] was 2 µg/mL and the PA-7 (MIC) [2] was 4 µg/mL.

With `COc1cc(-c2ccn(CCC(C)(C(=O)NO)S(C)(=O)=O)c(=O)c2)ccc1OCCCO` (centres unmarked) [Example 249, N-hydroxy-4-{4-[4-(3-hydroxypropoxy)-3-methoxyphenyl]-2-oxopyridin-1(2H)-yl}-2-methyl-2-(methylsulfonyl)butanamide] the EC-1 (MIC) [1] was > 64 µg/mL and the PA-7 (MIC) [2] was 64 µg/mL.

For `CC(CCn1ccc(-c2ccc(OCCCO)cc2F)cc1=O)(C(=O)NO)S(C)(=O)=O` (centres unmarked) [Example 250, 4-{4-[2-fluoro-4-(3-hydroxypropoxy)phenyl]-2-oxopyridin-1(2H)-yl}-N-hydroxy-2-methyl-2-(methylsulfonyl)butanamide], the EC-1 (MIC) [1] was 2 µg/mL and the PA-7 (MIC) [2] was 4 µg/mL.

In the case of `CC(CCn1ccc(-c2ccc(OCCCO)cc2Cl)cc1=O)(C(=O)NO)S(C)(=O)=O` (centres unmarked) [Example 251, 4-{4-[2-chloro-4-(3-hydroxypropoxy)phenyl]-2-oxopyridin-1(2H)-yl}-N-hydroxy-2-methyl-2-(methylsulfonyl)butanamide], the EC-1 (MIC) [1] is reported as 2 µg/mL and the PA-7 (MIC) [2] is reported as 4 µg/mL.

With `Cc1cc(OCCCO)ccc1-c1ccn(CCC(C)(C(=O)NO)S(C)(=O)=O)c(=O)c1` (centres unmarked) [Example 252, N-hydroxy-4-{4-[4-(3-hydroxypropoxy)-2-methylphenyl]-2-oxopyridin-1(2H)-yl}-2-methyl-2-(methylsulfonyl)butanamide] the EC-1 (MIC) [1] was 16 µg/mL and the PA-7 (MIC) [2] was 16 µg/mL.

With `COc1cc(OCCCO)ccc1-c1ccn(CCC(C)(C(=O)NO)S(C)(=O)=O)c(=O)c1` (centres unmarked) [Example 253, N-hydroxy-4-{4-[4-(3-hydroxypropoxy)-2-methoxyphenyl]-2-oxopyridin-1(2H)-yl}-2-methyl-2-(methylsulfonyl)butanamide] the EC-1 (MIC) [1] was 16 µg/mL and the PA-7 (MIC) [2] was > 64 µg/mL.

For `CC(CCn1ccc(-c2ccc3ncccc3c2)cc1=O)(C(=O)NO)S(C)(=O)=O` (centres unmarked) [Example 254], the EC-1 (MIC) [1] was 4 µg/mL and the PA-7 (MIC) [2] was 4 µg/mL.

In the case of `CC(C)(O)Cc1ccc(-c2ccn(CCC(C)(C(=O)NO)S(C)(=O)=O)c(=O)c2)cc1` (centres unmarked) [Example 255, N-hydroxy-4-{4-[4-(2-hydroxy-2-methylpropyl)phenyl]-2-oxopyridin-1(2H)-yl}-2-methyl-2-(methylsulfonyl)butanamide], the EC-1 (MIC) [1] is reported as 2 µg/mL and the PA-7 (MIC) [2] is reported as 8 µg/mL.

Compound `Cc1cc2cc(-c3ccn(CCC(C)(C(=O)NO)S(C)(=O)=O)c(=O)c3)ccc2[nH]1` (centres unmarked) [Example 256, N-hydroxy-2-methyl-4-[4-(2-methyl-1H-indol-5-yl)-2-oxopyridin-1(2H)-yl]-2-(methylsulfonyl)butanamide] has an EC-1 (MIC) [1] of 1 µg/mL and a PA-7 (MIC) [2] of 4 µg/mL.

For `Cc1cccc(-c2ccn(CCC(C)(C(=O)NO)S(C)(=O)=O)c(=O)c2)c1C` (centres unmarked) [Example 257, 4-[4-(2,3-dimethylphenyl)-2-oxopyridin-1(2H)-yl]-N-hydroxy-2-methyl-2-(methylsulfonyl)butanamide], the EC-1 (MIC) [1] was 4 µg/mL and the PA-7 (MIC) [2] was 2 µg/mL.
